Experimental data taken from patent EP2970215B1, “PYRROLIDINE DERIVATIVES, PHARMACEUTICAL COMPOSITIONS CONTAINING THEM, AND THEIR USE IN THERAPY” (AbbVie Deutschland GmbH & Co. KG, priority 2013, dated 2014).

Target: T1, human GlyT1c transporter (Homo sapiens, UniProt P48067)
T1 construct: expressed in transfected cells; host or cells: CHO cells (recombinant; line hGlyT1c_5_CHO is named for the uptake assay)
T1 sequence (P48067 1-706): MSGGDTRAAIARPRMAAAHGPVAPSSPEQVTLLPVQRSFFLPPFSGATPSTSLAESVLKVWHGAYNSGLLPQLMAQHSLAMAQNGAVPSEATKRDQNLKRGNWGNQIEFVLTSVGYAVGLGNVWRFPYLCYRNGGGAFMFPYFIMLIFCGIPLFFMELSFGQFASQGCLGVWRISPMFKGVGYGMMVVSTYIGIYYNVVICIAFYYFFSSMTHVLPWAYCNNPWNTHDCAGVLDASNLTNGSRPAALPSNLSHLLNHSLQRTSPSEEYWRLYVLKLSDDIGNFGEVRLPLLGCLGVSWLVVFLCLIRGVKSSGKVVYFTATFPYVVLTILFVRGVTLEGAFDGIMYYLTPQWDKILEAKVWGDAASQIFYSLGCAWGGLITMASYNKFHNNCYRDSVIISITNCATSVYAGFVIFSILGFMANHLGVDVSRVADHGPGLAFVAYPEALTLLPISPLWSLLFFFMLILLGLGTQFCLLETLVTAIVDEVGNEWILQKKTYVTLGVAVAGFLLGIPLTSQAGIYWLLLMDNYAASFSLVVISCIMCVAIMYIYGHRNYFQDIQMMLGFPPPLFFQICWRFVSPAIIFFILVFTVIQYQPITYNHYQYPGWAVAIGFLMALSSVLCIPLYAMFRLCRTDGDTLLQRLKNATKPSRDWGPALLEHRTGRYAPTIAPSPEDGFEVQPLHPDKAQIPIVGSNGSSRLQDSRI
Assay: Radioligand binding assay using recombinant CHO cell membranes expressing human GlyT1
Settings: radioligand binding to human GlyT1c transporter-expressing membranes
Description: 2. Radioligand binding assays using recombinant CHO cell membranes expressing human GlyT1: […]

Ki [µM] | Compound
≤ 0.01 | Cn1cnc(S(=O)(=O)N2C[C@@H](C(=O)NCc3cccc(Cl)c3)[C@H](c3ccc(F)cc3)C2)c1 (relative stereo) [Example 628, Trans-N-(3-chlorobenzyl)-4-(4-fluorophenyl)-1-[(1-methyl-1H-imidazol-4-yl)sulfonyl]pyrrolidine-3-carboxamide]
≤ 1 | Cn1cnc(S(=O)(=O)N2C[C@@H](C(=O)NCc3ccc(Cl)cc3)[C@H](c3ccc(F)cc3)C2)c1 (relative stereo) [Example 629, Trans-N-(4-chlorobenzyl)-4-(4-fluorophenyl)-1-[(1-methyl-1H-imidazol-4-yl)sulfonyl]pyrrolidine-3-carboxamide]
≤ 0.1 | Cn1cnc(S(=O)(=O)N2C[C@@H](C(=O)NCc3ccc(F)cc3)[C@H](c3ccc(F)cc3)C2)c1 (relative stereo) [Example 630, Trans-N-(4-fluorobenzyl)-4-(4-fluorophenyl)-1-[(1-methyl-1H-imidazol-4-yl)sulfonyl]pyrrolidine-3-carboxamide]
≤ 0.01 | Cn1cnc(S(=O)(=O)N2C[C@@H](C(=O)NCc3ccc(F)c(F)c3)[C@H](c3ccc(F)cc3)C2)c1 (relative stereo) [Example 631, Trans-N-(3,4-difluorobenzyl)-4-(4-fluorophenyl)-1-[(1-methyl-1H-imidazol-4-yl)sulfonyl]pyrrolidine-3-carboxamide]
≤ 1 | Cn1cnc(S(=O)(=O)N2C[C@@H](C(=O)NCc3cccc(C(F)(F)F)c3)[C@H](c3ccc(F)cc3)C2)c1 (relative stereo) [Example 632, Trans-4-(4-fluorophenyl)-1-[(1-methyl-1H-imidazol-4-yl)sulfonyl]-N-[3-(trifluoromethyl)benzyl]pyrrolidine-3-carboxamide]
≤ 10 | Cn1cnc(S(=O)(=O)N2C[C@@H](C(=O)NCc3ccccn3)[C@H](c3ccc(F)cc3)C2)c1 (relative stereo) [Example 634, Trans-4-(4-fluorophenyl)-1-[(1-methyl-1H-imidazol-4-yl)sulfonyl] -N-(pyridin-2-ylmethyl)pyrrolidine-3-carboxamide]
≤ 1 | Cn1cnc(S(=O)(=O)N2C[C@@H](C(=O)NCc3cc(C(F)(F)F)ccn3)[C@H](c3ccc(F)cc3)C2)c1 (relative stereo) [Example 635, Trans-4-(4-fluorophenyl)-1-[(1-methyl-1H-imidazol-4-yl)sulfonyl]-N-{[4-(trifluoromethyl)pyridin-2-yl]methyl}pyrrolidine-3-carboxamide]
≤ 1 | CCCCN(CCCC)C(=O)[C@@H]1CN(S(=O)(=O)c2cn(C)cn2)C[C@H]1c1ccc(F)cc1 (relative stereo) [Example 636, Trans-N,N-dibutyl-4-(4-fluorophenyl)-1-[(1-methyl-1H-imidazol-4-yl)sulfonyl]pyrrolidine-3-carboxamide]
≤ 0.01 | Cn1cnc(S(=O)(=O)N2C[C@@H](C(=O)NCc3ccc(F)c(Cl)c3)[C@H](c3ccc(F)cc3)C2)c1 (relative stereo) [Example 642, Trans-N-(3-chloro-4-fluorobenzyl)-4-(4-fluorophenyl)-1-[(1-methyl-1H-imidazol-4-yl)sulfonyl]pyrrolidine-3-carboxamide]
≤ 10 | CC(C)CCCCCNC(=O)[C@@H]1CN(S(=O)(=O)c2cn(C)cn2)C[C@H]1c1ccc(F)cc1 (relative stereo) [Example 643, Trans-4-(4-fluorophenyl)-N-(6-methylheptyl)-1-[(1-methyl-1H-imidazol-4-yl)sulfonyl]pyrrolidine-3-carboxamide]
≤ 0.1 | Cn1cnc(S(=O)(=O)N2C[C@@H](NCc3ccc(C(F)(F)F)cc3Cl)[C@H](C3CCCCO3)C2)c1 (relative stereo) [Example 680, Trans-N-[2-chloro-4-(trifluoromethyl)benzyl]-1-[(1-methyl-1H-imidazol-4-yl)sulfonyl]-4-(tetrahydro-2H-pyran-2-yl)pyrrolidin-3-amine]

The remaining lines, values behind:

Compound | Ki [µM]
N#Cc1ccccc1S(=O)(=O)N1C[C@@H](Nc2ccc(F)cc2)[C@H](c2ccccc2)C1 (relative stereo) [Example 529, 2-({Trans-3-[(4-fluorophenyl)amino]-4-phenylpyrrolidin-1-yl}sulfonyl)benzonitrile] | ≤ 10
Cn1cnc(S(=O)(=O)N2C[C@@H](Nc3cccc(Cl)c3)[C@H](OCC3CC3)C2)c1 (relative stereo) [Example 530, Trans-N-(3-chlorophenyl)-4-(cyclopropylmethoxy)-1-[(1-methyl-1H-imidazol-4-yl)sulfonyl]pyrrolidin-3-amine] | ≤ 1
Cn1cnc(S(=O)(=O)N2C[C@@H](Nc3cc(C(F)(F)F)ncn3)[C@H](C3CCCCC3)C2)c1 (relative stereo) [Example 531, N-{trans-4-cyclohexyl-1-[(1-methyl-1H-imidazol-4-yl)sulfonyl]pyrrolidin-3-yl}-6-(trifluoromethyl)pyrimidin-4-amine] | ≤ 0.1
CC(C)OCCCNC[C@@H]1CN(S(=O)(=O)c2cn(C)cn2)C[C@H]1c1ccc(F)cc1 (relative stereo) [Example 591, N-({trans-4-(4-fluorophenyl)-1-[(1-methyl-1H-imidazol-4-yl)sulfonyl]pyrrolidin-3-yl}methyl)-3-(propan-2-yloxy)propan-1-amine] | ≤ 10
CCOCCCNC[C@@H]1CN(S(=O)(=O)c2cn(C)cn2)C[C@H]1c1ccc(F)cc1 (relative stereo) [Example 592, 3-ethoxy-N-({trans-4-(4-fluorophenyl)-1-[(1-methyl-1H-imidazol-4-yl)sulfonyl]pyrrolidin-3-yl}methyl)propan-1-amine] | ≤ 10
COCCNC[C@@H]1CN(S(=O)(=O)c2cn(C)cn2)C[C@H]1c1ccc(F)cc1 (relative stereo) [Example 593, N-({trans-4-(4-fluorophenyl)-1-[(1-methyl-1H-imidazol-4-yl)sulfonyl]pyrrolidin-3-yl}methyl)-2-methoxyethanamine] | ≤ 10
CCCNC[C@@H]1CN(S(=O)(=O)c2cn(C)cn2)C[C@H]1c1ccc(F)cc1 (relative stereo) [Example 594, N-({trans-4-(4-fluorophenyl)-1-[(1-methyl-1H-imidazol-4-yl)sulfonyl]pyrrolidin-3-yl}methyl)propan-1-amine] | ≤ 10
CCCCNC[C@@H]1CN(S(=O)(=O)c2cn(C)cn2)C[C@H]1c1ccc(F)cc1 (relative stereo) [Example 595, N-({trans-4-(4-fluorophenyl)-1-[(1-methyl-1H-imidazol-4-yl)sulfonyl]pyrrolidin-3-yl}methyl)butan-1-amine] | ≤ 10
COCCCNC[C@@H]1CN(S(=O)(=O)c2cn(C)cn2)C[C@H]1c1ccc(F)cc1 (relative stereo) [Example 597, N-({trans-4-(4-fluorophenyl)-1-[(1-methyl-1H-imidazol-4-yl)sulfonyl]pyrrolidin-3-yl}methyl)-3-methoxypropan-1-amine] | ≤ 10
CCOCCNC[C@@H]1CN(S(=O)(=O)c2cn(C)cn2)C[C@H]1c1ccc(F)cc1 (relative stereo) [Example 598, 2-ethoxy-N-({trans-4-(4-fluorophenyl)-1-[(1-methyl-1H-imidazol-4-yl)sulfonyl]pyrrolidin-3-yl}methyl)ethanamine] | ≤ 10
CC(C)OCCNC[C@@H]1CN(S(=O)(=O)c2cn(C)cn2)C[C@H]1c1ccc(F)cc1 (relative stereo) [Example 599, N-({trans-4-(4-fluorophenyl)-1-[(1-methyl-1H-imidazol-4-yl)sulfonyl]pyrrolidin-3-yl}methyl)-2-(propan-2-yloxy)ethanamine] | ≤ 10
CCCCCNC(=O)[C@@H]1CN(S(=O)(=O)c2cn(C)cn2)C[C@H]1c1ccc(F)cc1 (relative stereo) [Example 626, Trans-4-(4-fluorophenyl)-1-[(1-methyl-1H-imidazol-4-yl)sulfonyl]-N-pentylpyrrolidine-3-carboxamide] | ≤ 1
CCCCCCNC(=O)[C@@H]1CN(S(=O)(=O)c2cn(C)cn2)C[C@H]1c1ccc(F)cc1 (relative stereo) [Example 627, Trans-4-(4-fluorophenyl)-N-hexyl-1-[(1-methyl-1H-imidazol-4-yl)sulfonyl]pyrrolidine-3-carboxamide] | ≤ 1
Cn1cnc(S(=O)(=O)N2C[C@@H](C(=O)NCc3cc(C(F)(F)F)ccc3Cl)[C@H](c3ccc(F)cc3)C2)c1 (relative stereo) [Example 633, Trans-N-[2-chloro-5-(trifluoromethyl)benzyl]-4-(4-fluorophenyl)-1-[(1-methyl-1H-imidazol-4-yl)sulfonyl]pyrrolidine-3-carboxamide] | ≤ 1
Cn1cnc(S(=O)(=O)N2C[C@@H](C(=O)NCc3cccc(OC(F)(F)F)c3)[C@H](c3ccc(F)cc3)C2)c1 (relative stereo) [Example 661, Trans-4-(4-fluorophenyl)-1-[(1-methyl-1H-imidazol-4-yl)sulfonyl]-N-[3-(trifluoromethoxy)benzyl]pyrrolidine-3-carboxamide] | ≤ 1
